One data set concerns A549 and H460. To be noted: cited from earlier work.
Data set [1] concerns breast cancer cell lines BT-549, MCF-7, MDA-MB-231, T47D. In words: AlamarBlue cellular proliferation, lapatinib and miR-Rx34 combination index. Format: cell-based, human. To be noted: ~IC50 ratio. As to the method: The human breast cancer cell lines BT-549, T47D, MDA-MD-231 and MCF-7 (from ATCC) were used to evaluate the combinatorial effects of mir-Rx34 and lapatinib. Lapatinib was purchased from LC Laboratories (Woburn, Mass.).
The combination studies were carried out at ˜IC50 ratio of lapatinib and miR-Rx34 (ratio=IC50 lapatinib/IC50 miR-Rx34). […] The ratios of lapatinib/miR-Rx34a are 4000 in BT-549, 3333.3 in MDA-MD-231, 5000 in MCF-7 and 6000 in T47D. Cells were reversed transfected with miR-Rx34a, lapatinib were added 3 days post transfection, and cell proliferation were measured 3 days post lapatinib addition by AlamarBlue.
Combinations that are considered synergistic and have clinical value are those with a low CI value (<0.6) at maximal cancer cell inhibition. […] Symbols represent CI values derived from actual data points.

For the next data set, the system named is A549 cells. In words: AlamarBlue cellular proliferation, matrix of erlotinib-miR-34a ratios. Format: cell-based, Human. To be noted: for concentration required as single agent to induce ~80% cancer cell inhibition: A549, actual data points. How it is done:
(§1) Each data point was performed in triplicates.
Levels of cancer cell inhibition, CI and DRI values were determined for each combination and graphed in CI plots, isobolograms and curve-shift diagrams.
For orientation: Alamar Blue is a resazurin reagent that responds to reducing activity.

A further data set relates to NSCLC. To be noted: patients with NSCLC; cited from earlier work.
For the next data set, the system named is H1299. To be noted: H1299 (resistant); reported in the scientific literature; cited from earlier work.
Data set [2] deals with Hep3B, C3A, HepG2 and Huh7. In words: AlamarBlue cellular proliferation, single agents and fixed ratio method in hepatocellular carcinoma cells. Format: cell-based. To be noted: 72 h, read-out: IC50 of erlotinib alone, 3 days. How it is done:
as §1
Front Biosci (Elite Ed) 2: 241-9. […] Id.

Data set [3] concerns H460. To be noted: H460 (resistant); reported in the scientific literature; cited from earlier work.
In the next data set the test system is HepG2. In words: AlamarBlue cellular proliferation, isobologram of erlotinib with miR-34a. Format: cell-based. How it is done:
as §1

For data set [4], the system named is H460. Briefly: cells. To be noted: Homo sapiens, NCI-H460, 72 h.
Another data set deals with H1299 cells. Briefly: AlamarBlue cellular proliferation, fixed concentration model (erlotinib serial dilution +/- miRNA). It counts as cell-based. To be noted: Homo sapiens.

Read-outs that look alike come from different tables or passages of the source.

The values below come from US20140308274A1, “COMBINATION CANCER TREATMENTS UTILIZING SYNTHETIC OLIGONUCLEOTIDES AND EGFR-TKI INHIBITORS” (MIRNA THERAPEUTICS, INC., priority 2013, published 2014).

Consider “miR-126: microRNA UCGUACCGUGAGUAAUAAUGC, SEQ ID NO: 3 (chemistry not given here)”, for which the “reduction of gefitinib IC50” value in the data set with A549 and H460 was about 7 fold.
For “miR-34a: Synthetic miR-34a mimic; UGGCAGUGUCUUAGCUGGUUGUU, SEQ ID NO: 1 (chemistry not given here)”, in data set [1], the “interaction with lapatinib (combination index)” value is listed as “synergized with lapatinib”. Further, the “concentration required as single agent to induce ~80% cancer cell inhibition” value in the data set with A549 cells worked out at 0.03 µM.
As for `COc1cc2ncnc(Nc3ccc(F)c(Cl)c3)c2cc1OCCCN1CCOCC1` [gefitinib], the “extension of overall patient survival” value in the data set with NSCLC was about 2 months.
One may read the IC50 as the concentration at which inhibition is half-maximal. Consider `C#Cc1cccc(Nc2ncnc3cc(OCCOC)c(OCCOC)cc23)c1` [Erlotinib, N-(3-ethynylphenyl)-6,7-bis(2-methoxyethoxy)-4-quinazolinamine], for which the half-inhibitory concentration (IC50) in the data set on H1299 was 8.6 to 38 µM; in data set [2], at least 25 µM; with H460 [3] it was 8 to 24 µM; in the data set with H460 [4], 26.3 µM; with H1299 cells (NCI-H1299, 72 h, read-out: IC50 of erlotinib alone, H1299 cells, 3 days), 11 µM; with H1299 cells (NCI-H1299, 72 h, read-out: IC50), 21.5 µM. In the data set with H1299 cells (NCI-H1299, read-out: erlotinib IC50 in combination with miR-34a, H1299 cells, 0.3 nM miR-34a), the 50% inhibitory concentration (IC50) was 3 µM. Also, the “extension of overall patient survival” value with NSCLC was about 2 months. In addition, in the data set with HepG2 (HepG2), the “erlotinib concentration in combination with miR-34a to inhibit cancer cells by 50%” value turned out to be 2 µM. The “lowering of erlotinib dose compared to its single use” value with HepG2 (HepG2, 50% inhibition) came to 75 fold. The “concentration required as single agent to induce ~80% cancer cell inhibition” value in the data set with A549 cells worked out at 100 µM. Moreover, the “erlotinib needed to induce ~80% inhibition in combination” value in the data set with A549 cells (A549, used with 12 nM miR-34a) came to 2.56 µM. Also, in the data set on A549 cells (A549, ~80% inhibition, with 12 nM miR-34a), the “reduction of the dose requirement of erlotinib” value is given as about 40 fold.
